Calls of active or inactive are those of the source.
Assays:
Nonstructural protein 1 = Nonstructural protein 1 (Influenza A virus, UniProt Q194T2); format: functional, Influenza A virus (A/California/07/2009(H1N1))
INS1 = assay: INS-1E survival protection against cytokine death – cell-based, luminescence, retest, dose response (AID 449756); format: functional; details: Rattus norvegicus;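 further: cell death triggered by IL-1 beta plus TNF-alpha plus IFN-gamma mixture; protective hits raise ATP signal compared with cytokine alone wells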
[1] = NIH3T3 cell viability loss – ATP luminescence, mouse fibroblasts, counter-screen, dose response (AID 2010); format: functional, cell-based;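 further: cells exposed to compound for about 90 hours before reading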
[2] = bead-based luminescence quenchers, dual-tagged ARNT – biochemical, AlphaScreen, cherry-pick, artefact control for ARNT-TACC3 interaction inhibitor project, dose response (AID 651705); format: functional;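 further: AlphaScreen bead proximity signal that flags compounds interfering with the detection technology; potency reflects signal decrease which marks the compound as an assay artifact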
[3] = target: Photoreceptor-specific nuclear receptor (Homo sapiens, UniProt Q9Y5X4); format: functional, cell-based;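 further: CHO-S cells with Gal4-NCOR and VP16-NR2E3 two-hybrid luciferase reporter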
Chain of Photoreceptor-specific nuclear receptor (Q9Y5X4 whole entry, the tested form may be a part): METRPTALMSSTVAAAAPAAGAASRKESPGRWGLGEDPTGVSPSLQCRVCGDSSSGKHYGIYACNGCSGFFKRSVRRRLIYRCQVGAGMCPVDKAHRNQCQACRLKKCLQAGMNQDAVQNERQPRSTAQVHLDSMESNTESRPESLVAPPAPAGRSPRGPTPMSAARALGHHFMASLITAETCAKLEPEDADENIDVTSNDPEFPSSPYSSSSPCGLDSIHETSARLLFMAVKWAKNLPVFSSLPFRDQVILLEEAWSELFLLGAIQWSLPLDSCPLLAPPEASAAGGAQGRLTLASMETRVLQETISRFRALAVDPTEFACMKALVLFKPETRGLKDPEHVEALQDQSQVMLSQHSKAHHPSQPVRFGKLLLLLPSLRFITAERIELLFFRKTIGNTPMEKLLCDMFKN

[4] = Trypanosoma cruzi growth suppression in host cells – NIH3T3 host cells, beta-gal luminescence, confirmation (AID 2044); format: functional, cell-based;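 further: intracellular parasites grown in NIH/3T3 mouse fibroblasts as host cells; luminescent beta-galactosidase reporter signal from transgenic T. cruzi replicating inside host cells; inhibitors lower the luminescence signal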
HEK293 = assay: EBV LMP1 TES2 canonical NF-kB signalling blockers – cell-based, HEK293, luciferase, cherry-pick, dose response (AID 588343); format: functional; details: Homo sapiens
[5] = target: 5-hydroxytryptamine receptor 2A (Mus musculus, UniProt P35363); format: functional, cell-based;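 further: CHO-K1 cells with tagged receptor and beta-arrestin; agonist potency measured as compound-induced activation of the receptor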
Chain of 5-hydroxytryptamine receptor 2A (P35363 whole entry): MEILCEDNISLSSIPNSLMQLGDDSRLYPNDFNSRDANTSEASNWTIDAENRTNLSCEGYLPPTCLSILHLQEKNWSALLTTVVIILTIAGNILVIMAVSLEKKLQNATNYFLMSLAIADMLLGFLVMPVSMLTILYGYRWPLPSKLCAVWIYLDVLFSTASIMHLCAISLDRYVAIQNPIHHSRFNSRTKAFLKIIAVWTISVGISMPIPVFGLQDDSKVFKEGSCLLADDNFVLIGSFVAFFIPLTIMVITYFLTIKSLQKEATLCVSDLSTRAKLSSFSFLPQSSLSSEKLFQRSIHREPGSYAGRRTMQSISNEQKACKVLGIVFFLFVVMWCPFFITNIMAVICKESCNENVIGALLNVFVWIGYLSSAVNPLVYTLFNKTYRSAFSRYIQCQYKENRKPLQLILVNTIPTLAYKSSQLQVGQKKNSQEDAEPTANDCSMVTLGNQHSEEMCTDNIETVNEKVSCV

Mu-type opioid receptor = Mu-type opioid receptor (Homo sapiens, UniProt P35372); format: functional, cell-based;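 further: U2OS cells with beta-arrestin recruitment to OPRM1 by beta-gal complementation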
Chain of Mu-type opioid receptor (P35372 whole entry): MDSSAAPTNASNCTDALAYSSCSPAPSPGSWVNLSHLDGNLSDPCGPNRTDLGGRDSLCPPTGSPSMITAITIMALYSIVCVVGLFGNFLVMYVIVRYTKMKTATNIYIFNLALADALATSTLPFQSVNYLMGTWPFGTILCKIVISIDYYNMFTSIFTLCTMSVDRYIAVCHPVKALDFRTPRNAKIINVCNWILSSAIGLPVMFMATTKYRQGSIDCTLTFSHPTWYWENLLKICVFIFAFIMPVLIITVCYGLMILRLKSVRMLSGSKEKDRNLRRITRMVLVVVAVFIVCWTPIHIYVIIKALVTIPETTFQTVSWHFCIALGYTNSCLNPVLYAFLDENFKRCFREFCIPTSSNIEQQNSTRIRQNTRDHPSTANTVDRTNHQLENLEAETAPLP

[6] = target: Tyrosyl-DNA phosphodiesterase 2 (Homo sapiens, UniProt O95551); assay: potency against TDP2 phosphodiesterase activity – biochemical, epi absorbance, IC50, dose response (AID 743297)
Chain of Tyrosyl-DNA phosphodiesterase 2 (O95551 whole entry): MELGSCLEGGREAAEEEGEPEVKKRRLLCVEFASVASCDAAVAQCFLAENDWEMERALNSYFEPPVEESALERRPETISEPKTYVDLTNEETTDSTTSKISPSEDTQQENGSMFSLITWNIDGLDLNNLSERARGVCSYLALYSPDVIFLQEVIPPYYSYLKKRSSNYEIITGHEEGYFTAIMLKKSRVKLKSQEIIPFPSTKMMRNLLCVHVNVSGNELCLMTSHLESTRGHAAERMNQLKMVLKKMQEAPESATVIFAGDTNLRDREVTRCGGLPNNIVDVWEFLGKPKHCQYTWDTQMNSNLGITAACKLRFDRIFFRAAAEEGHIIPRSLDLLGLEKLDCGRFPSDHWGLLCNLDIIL

cells [7] = format: functional, cell-based
[8] = target: T1, Trace amine-associated receptor 1 (Homo sapiens, UniProt Q96RJ0); assay: Fluorescence-based cell-based high throughput dose response assay to identify agonists of the human trace amine associated receptor 1 (TAAR1).; format: functional
T1 sequence (Q96RJ0 whole entry): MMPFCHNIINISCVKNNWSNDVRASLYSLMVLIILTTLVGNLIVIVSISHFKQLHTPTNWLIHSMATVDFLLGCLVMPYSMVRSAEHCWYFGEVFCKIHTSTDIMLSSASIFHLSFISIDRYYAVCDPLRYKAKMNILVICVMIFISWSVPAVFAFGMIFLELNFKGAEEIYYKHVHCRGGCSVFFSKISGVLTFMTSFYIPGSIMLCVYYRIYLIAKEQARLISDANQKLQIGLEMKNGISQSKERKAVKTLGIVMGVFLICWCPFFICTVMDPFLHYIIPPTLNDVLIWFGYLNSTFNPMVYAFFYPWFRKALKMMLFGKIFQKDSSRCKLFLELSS

[9] = target: T1, Trace amine-associated receptor 1; assay: Counterscreen for agonists of the human trace amine associated receptor 1 (hTAAR1): Fluorescence-based cell-based high throughput dose response assay to identify hTAAR1 agonist that also desensitize TAAR1 receptor response.; format: functional
cells [10] = format: functional, cell-based; remark: listed apart in the source
[11] = Fluorescence-based cell-based high throughput dose response assay for inhibitors of the interaction of nucleotide-binding oligomerization domain containing 2 (NOD2) and the receptor-interacting serine-threonine kinase 2 (RIPK2).; format: functional; details: Homo sapiens
Hexokinase = target: T2, Hexokinase (Trypanosoma brucei, UniProt Q38C41); assay: Confirmation assay for inhibitors of Trypanosoma brucei hexokinase 1-Analogue-first series. [Related pubchem assays (depositor defined):AID1430, AID1632, AID2516, AID2560, AID2579, AID2600, AID449725, AID492951]; format: functional
T2 sequence (Q38C41 whole entry): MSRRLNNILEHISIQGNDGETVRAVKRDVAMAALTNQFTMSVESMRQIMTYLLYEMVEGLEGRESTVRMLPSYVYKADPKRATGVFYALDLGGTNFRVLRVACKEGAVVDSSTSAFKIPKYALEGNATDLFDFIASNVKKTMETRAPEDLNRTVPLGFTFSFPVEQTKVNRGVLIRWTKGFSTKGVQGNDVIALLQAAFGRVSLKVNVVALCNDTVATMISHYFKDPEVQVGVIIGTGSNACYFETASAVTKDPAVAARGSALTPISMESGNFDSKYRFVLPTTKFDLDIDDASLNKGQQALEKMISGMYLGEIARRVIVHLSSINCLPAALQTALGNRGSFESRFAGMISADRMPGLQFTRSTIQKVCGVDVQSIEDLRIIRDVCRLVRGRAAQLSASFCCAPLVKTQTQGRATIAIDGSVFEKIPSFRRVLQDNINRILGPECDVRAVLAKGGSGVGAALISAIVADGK

[12] = target: T3, Rac GTPase-activating protein 1 (Homo sapiens, UniProt Q9H0H5); assay: blockers of MgcRacGAP-driven Rac1 GTP hydrolysis – biochemical, ADP Hunter fluorescence, primary and confirmatory, confirmation (AID 624330); format: functional
T3 sequence (Q9H0H5 whole entry): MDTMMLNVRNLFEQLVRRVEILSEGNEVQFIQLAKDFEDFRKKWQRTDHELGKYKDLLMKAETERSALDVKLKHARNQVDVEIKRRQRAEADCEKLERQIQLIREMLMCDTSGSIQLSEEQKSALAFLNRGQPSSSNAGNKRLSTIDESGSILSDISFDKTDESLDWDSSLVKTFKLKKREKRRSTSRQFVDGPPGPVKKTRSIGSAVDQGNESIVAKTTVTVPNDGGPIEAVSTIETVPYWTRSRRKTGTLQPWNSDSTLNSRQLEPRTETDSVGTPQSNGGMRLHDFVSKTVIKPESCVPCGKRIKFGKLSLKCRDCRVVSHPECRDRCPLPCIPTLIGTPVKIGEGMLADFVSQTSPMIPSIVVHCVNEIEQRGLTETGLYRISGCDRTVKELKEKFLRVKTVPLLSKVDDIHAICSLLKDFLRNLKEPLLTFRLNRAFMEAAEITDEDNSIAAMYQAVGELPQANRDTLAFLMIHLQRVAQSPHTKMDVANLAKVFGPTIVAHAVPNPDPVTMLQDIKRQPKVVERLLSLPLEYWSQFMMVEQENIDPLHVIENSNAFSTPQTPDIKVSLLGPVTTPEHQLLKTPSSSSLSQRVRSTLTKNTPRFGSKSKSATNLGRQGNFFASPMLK

Beta Lactamase = Beta Lactamase (Pseudomonas aeruginosa, UniProt Q932Y6); assay: BLA reporter interference, concentration series – BLA reporter cells, FRET fluorescence, artefact control for NOD2-RIPK2 interaction inhibitor project, dose response (AID 651552); format: functional, cell-based
Chain of Beta Lactamase (Q932Y6 whole entry): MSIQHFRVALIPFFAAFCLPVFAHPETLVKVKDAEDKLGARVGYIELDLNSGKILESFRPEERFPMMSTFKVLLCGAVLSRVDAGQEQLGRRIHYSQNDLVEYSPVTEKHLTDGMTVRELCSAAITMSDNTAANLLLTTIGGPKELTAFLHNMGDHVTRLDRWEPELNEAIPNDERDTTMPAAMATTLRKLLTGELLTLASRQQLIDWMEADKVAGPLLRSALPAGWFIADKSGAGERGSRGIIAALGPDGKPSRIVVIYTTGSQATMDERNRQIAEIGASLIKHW

[13] = Counterscreen for activators of the function of SWI/SNF related, matrix associated, actin dependent regulator of chromatin, subfamily a, member 2 (SMARCA2, BRM): Luminescence-based cell-based high throughput dose response assay to identify non-selective compounds using the VP16 reporter assay.; format: functional
[14] = target: SWI/SNF-related matrix-associated actin-dependent regulator of chromatin subfamily A member 2 (Homo sapiens, UniProt P51531); assay: Luminescence-based cell-based high throughput dose response assay to identify activators of the function of SWI/SNF related, matrix associated, actin dependent regulator of chromatin, subfamily a, member 2 (SMARCA2, BRM).; format: functional
Chain of SWI/SNF-related matrix-associated actin-dependent regulator of chromatin subfamily A member 2 (P51531 whole entry): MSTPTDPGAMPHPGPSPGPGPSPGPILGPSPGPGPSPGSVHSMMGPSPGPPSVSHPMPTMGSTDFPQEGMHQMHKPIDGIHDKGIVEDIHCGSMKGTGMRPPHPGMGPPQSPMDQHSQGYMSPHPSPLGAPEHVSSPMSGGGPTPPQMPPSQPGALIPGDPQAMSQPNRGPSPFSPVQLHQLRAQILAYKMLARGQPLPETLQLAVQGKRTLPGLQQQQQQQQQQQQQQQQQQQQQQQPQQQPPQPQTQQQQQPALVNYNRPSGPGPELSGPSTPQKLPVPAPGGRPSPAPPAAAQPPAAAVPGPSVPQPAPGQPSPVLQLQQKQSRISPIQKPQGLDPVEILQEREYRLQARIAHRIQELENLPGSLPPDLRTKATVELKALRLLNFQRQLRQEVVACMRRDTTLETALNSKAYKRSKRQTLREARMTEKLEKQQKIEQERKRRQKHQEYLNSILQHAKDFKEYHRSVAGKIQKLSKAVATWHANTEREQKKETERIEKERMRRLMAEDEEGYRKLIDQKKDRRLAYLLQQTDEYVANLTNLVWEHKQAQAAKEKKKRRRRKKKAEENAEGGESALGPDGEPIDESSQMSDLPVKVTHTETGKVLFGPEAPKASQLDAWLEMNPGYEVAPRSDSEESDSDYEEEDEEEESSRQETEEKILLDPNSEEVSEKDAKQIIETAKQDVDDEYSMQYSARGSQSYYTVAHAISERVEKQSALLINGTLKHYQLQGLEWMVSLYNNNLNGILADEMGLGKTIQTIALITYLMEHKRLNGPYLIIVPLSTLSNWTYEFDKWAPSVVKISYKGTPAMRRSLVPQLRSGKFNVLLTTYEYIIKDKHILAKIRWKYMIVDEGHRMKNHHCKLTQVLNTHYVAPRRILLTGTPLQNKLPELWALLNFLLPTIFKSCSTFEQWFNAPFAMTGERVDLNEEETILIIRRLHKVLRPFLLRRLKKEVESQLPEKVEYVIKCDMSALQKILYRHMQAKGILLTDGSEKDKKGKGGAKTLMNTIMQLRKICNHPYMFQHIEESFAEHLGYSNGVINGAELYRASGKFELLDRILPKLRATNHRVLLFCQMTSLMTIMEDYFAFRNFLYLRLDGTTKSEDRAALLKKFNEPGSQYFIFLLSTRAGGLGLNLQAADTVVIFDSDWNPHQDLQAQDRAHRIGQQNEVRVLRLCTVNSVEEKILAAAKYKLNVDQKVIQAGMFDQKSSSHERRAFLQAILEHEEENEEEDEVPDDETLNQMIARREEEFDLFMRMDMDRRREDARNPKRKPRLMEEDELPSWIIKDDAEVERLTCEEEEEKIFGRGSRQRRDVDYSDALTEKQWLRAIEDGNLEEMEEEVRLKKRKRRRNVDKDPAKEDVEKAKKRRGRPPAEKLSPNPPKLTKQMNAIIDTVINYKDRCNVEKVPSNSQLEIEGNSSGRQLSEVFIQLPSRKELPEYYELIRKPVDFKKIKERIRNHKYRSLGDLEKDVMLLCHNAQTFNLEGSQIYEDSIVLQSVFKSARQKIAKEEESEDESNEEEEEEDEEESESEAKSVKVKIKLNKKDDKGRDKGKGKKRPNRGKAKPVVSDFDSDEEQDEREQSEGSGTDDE

[15] = target: Glucose-6-phosphate 1-dehydrogenase (Homo sapiens, UniProt P11413); assay: inhibition of Homo sapiens G6PD, dose series – biochemical, fluorescence, selectivity assay for P. falciparum G6PD inhibitor project, dose response (AID 504792); format: functional
Chain of Glucose-6-phosphate 1-dehydrogenase (P11413 whole entry): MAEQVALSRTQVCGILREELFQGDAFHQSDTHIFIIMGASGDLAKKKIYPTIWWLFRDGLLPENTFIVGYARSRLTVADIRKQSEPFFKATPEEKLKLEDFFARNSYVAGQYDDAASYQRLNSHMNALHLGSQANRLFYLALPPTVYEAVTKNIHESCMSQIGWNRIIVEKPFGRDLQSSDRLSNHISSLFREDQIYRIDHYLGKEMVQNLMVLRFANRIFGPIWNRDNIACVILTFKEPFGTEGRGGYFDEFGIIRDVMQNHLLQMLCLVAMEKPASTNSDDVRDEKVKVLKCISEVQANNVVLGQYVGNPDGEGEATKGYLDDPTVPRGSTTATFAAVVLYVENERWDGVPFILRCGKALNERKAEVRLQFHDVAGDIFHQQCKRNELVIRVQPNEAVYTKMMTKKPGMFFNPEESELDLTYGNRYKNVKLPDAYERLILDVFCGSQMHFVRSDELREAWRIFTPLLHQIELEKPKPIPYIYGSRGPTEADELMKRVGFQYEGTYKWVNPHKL

Chain of Nonstructural protein 1 (Q194T2 whole entry): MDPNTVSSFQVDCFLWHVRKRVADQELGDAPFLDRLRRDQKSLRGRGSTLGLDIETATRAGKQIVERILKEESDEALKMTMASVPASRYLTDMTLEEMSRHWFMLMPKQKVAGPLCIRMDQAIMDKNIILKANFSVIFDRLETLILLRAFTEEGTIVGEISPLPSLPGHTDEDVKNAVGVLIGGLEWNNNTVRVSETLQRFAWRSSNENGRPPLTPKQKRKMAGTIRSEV

CCC(C)Nc1nc(-c2ccccn2)nc2ccccc12 (stereo not drawn)
IC50 (Nonstructural protein 1): 25.5 µM (active) | AC50 (INS1): 2.89 µM (active) | EC50 [1]: > 30 µM (not active) | AC50 [2]: 117 µM (active) | IC50 [3]: 4.14 µM (active) | EC50 [4]: 1.33 µM (active) | AC50 (HEK293): 4.94 µM (active)

c1ccc(CN2CCN(c3ncccn3)CC2)cc1
EC50 [5]: 0.235 µM (active) | EC50 (Mu-type opioid receptor): 92.5 µM (inactive)

S=C(Nc1ccc2nsnc2c1)N1CCCC1
IC50 [6]: > 128 µM (inactive)

CCCOc1ccc(OCCOCCN2CCc3ccccc3C2)cc1
IC50 (cells [7]): > 29.9 µM (inactive) | EC50 [1]: > 30 µM (not active) | EC50 [8]: 2.08 µM (active) | IC50 [9]: > 3.32 µM (active) | EC50 [4]: 0.205 µM (active) | EC50 (cells [10]): > 29.9 µM (inactive)

O=C(Cn1sc2ccccc2c1=O)Nc1ccc(F)cc1
IC50 [11]: 9.51 µM (active) | IC50 (Hexokinase): 6.23 µM (active) | IC50 [12]: 56.2 µM (active) | IC50 (Beta Lactamase): 19.3 µM (inactive) | EC50 [13]: > 91.1 µM (inactive) | EC50 [14]: > 91.1 µM (inactive) | IC50 [15]: 14.9 µM (active)
